According to patent US20240300943A1, “NOVEL SALTS OF HETEROCYCLIC COMPOUND AS PROTEIN KINASE INHIBITOR AND USES THEREOF” (HK INNO.N CORPORATION, priority 2021, published 2024):

Assays:
[1] = molecular target: TYK2 (Homo sapiens, UniProt P29597); assay: ADP-Glo Tyk2 kinase assay; format: biochemical; details: read-out: IC50, In vitro enzyme TYK2
Description: 10 mM of Compound 1 was diluted in DMSO to prepare samples at five concentrations (5,000 nM, 500 nM, 50 nM, 5 nM, and 0.5 nM). 10 mM of ATP was diluted at 1/40 in 1× kinase buffer to make a preparation. 1 mg/mL of Poly (Glu4, Tyr1) peptide was used as a stock solution. 100 ng/μL of Tyk2 enzyme was diluted at ½ in 1× kinase buffer to make a preparation. 1 μL of ATP, 1 μL of Poly (Glu4, Tyr1) peptide, and 1 μL of Compound 1 prepared as above were mixed, after which 2 μL of Tyk2 enzyme was finally added and reacted at 30° C. for 40 minutes. At this time, a tube without […] enzyme was prepared for a blank and a tube without Compound 1 was prepared as a positive control group together (a final concentration of samples was 1,000 nM, 100 nM, 10 nM, 1 nM, and 0.1 nM).
Then, 5 μL of ADP-glo was added to each tube and reacted at 30° C. for 40 minutes, after which 10 μL of kinase detection reagent was added thereto and reacted at room temperature for 15 minutes. After 18 μL of the reactant was transferred to a 384 well plate, luminescence was measured using a plate reader.

[2] = tested on: JAK1, Tyk2; assay: In vitro cell assay, JAK1, Tyk2 (U2OS cells, IFN-alphaB2); format: cell-based; details: Homo sapiens, read-out: IC50, Cell Biology JAK1, Tyk2
Description: Furthermore, there is a literature in which U20S cells are associated with JAK1/TYK2 signaling activity and phosphorylation of STAT1 by IFN-alphaB2 and IFN-γ. Accordingly, U2OS cells were prepared for the evaluation of JAK1 and TYK2 as a cell line which strongly expresses STAT1 signals.
The test material was dissolved in DMSO, prepared at 10 mM, divided by 20 μL each, and stored at −20° C.
• EPO: 2000 U/0.5 mL of stock was divided by 50 μL each and stored under refrigeration. • IL-2: 200 μg/ml of stock was prepared, divided by 5 μL each, and stored, and then treated at 2 ng/ml. (IL-2 1 μg/ml=13000 U/ml) • IFN-alphaB2: […] of stock was diluted and used, and then treated to reach 30000 U/ml.
• UT-7/EPO cell assay: MEM-alpha (Gibco, cat #12561-056) was prepared to contain 5% FBS and 1% P/S before use. • NK-92 cell assay: A preparation was made to contain HBSS, 1% FBS and 1% P/S before use. • U2OS cell assay: A preparation was made to contain HBSS, 1% FBS and 1% P/S before use.
The cultured cells were centrifuged (1,000 rpm, 5 minutes) and washed with PBS. The size of cell lines and appropriate reaction concentration thereof were set and the cell lines were seeded in a 96-well plate at 1×10^5 to 10^6 cells/well (50 μL/well). The test material was prepared 4× of the concentration to be treated, and prepared at five to six concentrations by serial dilution of ⅕ each. […]

[3] = tested on: DNBS-induced animal model (IBD rat model); assay: DNBS-induced colitis model; format: in vivo; details: oral, once a day, four weeks, FIG. 26
Description: Before induction of colitis with DNBS every week, experimental animals were fasted for 24 hours. Fasted animals were lightly anesthetized with isoflurane, catheter tubes with a length of 8 cm were inserted into the rat anus, and then colitis was induced by slowly injecting 250 μL of DNBS [15 mg (1st week), 30 mg (2nd week), 45 mg (3rd week) and 60 mg (4th week) in 250 μL of 50% ethanol] solution using a syringe pump at a rate of 100 μL/min. After the injection of the solution, a head-down posture was maintained for one minute so that the solution may spread evenly in the animal's intestines and may not leak out of the body. […]
The large intestine tissue extracted from the sacrificed experimental animals was photographed to measure the length of the large intestine. The length of the large intestine was measured from the taken picture using an image program (Leica Application Suite V4). […] The measured weight and length were used to convert the large intestine ratio (mg/cm) (=large intestine weight (mg)/large intestine length (cm)).
Calprotectin & c-reactive protein (CRP) and IFN-γ from serum collected at autopsy were analyzed by ELISA. […]

[4] = Measurement of water solubility; format: physicochemical; details: saturated solution shaken at room temperature for 24 hours
Description: A liquid phase was taken out of the solution and filtered using a 0.22 μm PVDF filter. The filtered liquid phase was diluted 10-fold for LC analysis.
LC analysis was performed by the following method.

[5] = tested on: DNCB-induced animal model (NC/Nga mice); assay: DNCB-induced atopic dermatitis model (PO); format: in vivo; details: twice a day for 28 days, FIGS. 17 to 19
Description: A DNCB-induced animal model was prepared in substantially the same manner as the DNCB model (topical) in Experimental Example 6, except that the phosphate compound was orally administered, and the phosphate compound obtained according to Example 3 was administered. The phosphate compound was orally administered a total of 56 times twice a day for 28 days, and an administration interval was eight hours. The dosage (10 mL/kg) was calculated and determined based on the body weight measured on the day of administration, and intragastrically administered through the mouth of mice using a 1 ml syringe and a feeding needle. The control group was dosed with 0.5% methylcellulose (0.5% MC).

Sequence of TYK2 (P29597 whole entry, species assumed): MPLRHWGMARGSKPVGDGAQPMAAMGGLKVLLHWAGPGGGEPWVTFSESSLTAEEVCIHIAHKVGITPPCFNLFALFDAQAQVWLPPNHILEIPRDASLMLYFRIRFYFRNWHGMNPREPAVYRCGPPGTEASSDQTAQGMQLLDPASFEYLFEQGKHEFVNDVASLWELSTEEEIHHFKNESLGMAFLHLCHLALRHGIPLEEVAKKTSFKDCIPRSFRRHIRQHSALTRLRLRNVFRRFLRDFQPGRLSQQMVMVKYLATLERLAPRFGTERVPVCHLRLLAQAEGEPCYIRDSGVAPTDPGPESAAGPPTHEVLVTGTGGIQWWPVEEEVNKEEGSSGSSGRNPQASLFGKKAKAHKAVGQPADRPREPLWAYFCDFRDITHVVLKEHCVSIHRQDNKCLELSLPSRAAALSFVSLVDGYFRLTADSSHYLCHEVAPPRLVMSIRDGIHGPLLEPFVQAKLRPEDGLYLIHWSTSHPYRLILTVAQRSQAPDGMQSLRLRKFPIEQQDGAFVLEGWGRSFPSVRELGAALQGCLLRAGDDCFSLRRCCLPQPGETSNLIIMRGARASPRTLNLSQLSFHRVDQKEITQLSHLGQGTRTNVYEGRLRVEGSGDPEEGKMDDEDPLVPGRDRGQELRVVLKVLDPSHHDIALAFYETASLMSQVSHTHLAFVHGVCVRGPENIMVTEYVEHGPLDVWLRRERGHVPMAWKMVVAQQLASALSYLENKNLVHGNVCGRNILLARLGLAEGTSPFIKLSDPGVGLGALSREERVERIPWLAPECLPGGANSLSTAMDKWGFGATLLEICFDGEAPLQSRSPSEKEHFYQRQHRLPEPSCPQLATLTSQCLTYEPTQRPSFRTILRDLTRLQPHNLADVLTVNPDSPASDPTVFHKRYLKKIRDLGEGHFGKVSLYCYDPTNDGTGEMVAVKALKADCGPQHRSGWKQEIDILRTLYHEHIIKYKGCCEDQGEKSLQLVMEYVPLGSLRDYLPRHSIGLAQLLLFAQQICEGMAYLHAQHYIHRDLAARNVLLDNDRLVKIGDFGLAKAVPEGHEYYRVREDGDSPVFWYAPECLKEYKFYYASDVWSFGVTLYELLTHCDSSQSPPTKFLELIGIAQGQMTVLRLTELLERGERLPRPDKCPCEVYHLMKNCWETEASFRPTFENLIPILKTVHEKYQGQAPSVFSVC

Row | IC50 [1] [µM] | IC50 [2] [µM] | Water solubility [4] [µg/mL] | Structure (SMILES) | Efficacy in IBD rat model [3] | Level of proinflammatory cytokines compared to the control group (vehicle) [3] | Symptoms of atopic dermatitis [5]
1 | 0.022 | 0.027 | – | C[C@@H]1CN(C(=O)CC#N)CC=C1c1cc(NC(=O)C2CC2)nc2[nH]ccc12 [Compound 1, (S)—N-(4-(1-(2-cyanoacetyl)-3-methyl-1,2,3,6-tetrahydropyridin-4-yl)-1H-pyrrolo[2,3-b]pyridin-6-yl)cyclopropanecarboxamide] | exhibits efficacy in an IBD rat model | significantly lower level of proinflammatory cytokines | –
2 | – | – | 3900 | C[C@@H]1CN(C(=O)CC#N)CC=C1c1cc(NC(=O)C2CC2)nc2[nH]ccc12 [Example 3, (S)—N-(4-(1-(2-cyanoacetyl)-3-methyl-1,2,3,6-tetrahydropyridin-4-yl)-1H-pyrrolo[2,3-b]pyridin-6-yl)cyclopropanecarboxamide] | – | – | ameliorates symptoms of atopic dermatitis
